System: participants with SSc-RP
Experiment: Scleroderma Health Assessment Questionnaire (SHAQ): disability indices and visual analog scales
Format: in vivo, human
Conditions: for SHAQ Visual Analogue Scale - Overall Disease Severity, Median / SHAQ Visual Analogue Scale - Pain, Mean / SHAQ Visual Analogue Scale - Pain, Median / SHAQ Visual Analogue Scale - Raynaud's, Mean / SHAQ Visual Analogue Scale - Raynaud's, Median / SHAQ Visual Analogue Scale - Breathing Problems, Mean / SHAQ Visual Analogue Scale - Breathing Problems, Median / SHAQ Visual Analogue Scale - Finger Ulcers, Mean / SHAQ Visual Analogue Scale - Finger Ulcers, Median / SHAQ Visual Analogue Scale - Intestinal Problems, Mean / SHAQ Visual Analogue Scale - Intestinal Problems, Median / SHAQ Visual Analogue Scale - Overall Disease Severity, Mean: In-Clinic Visit (Day 12), PP Population Part A; for SHAQ Finger Ulcers, Baseline, Mean / SHAQ Finger Ulcers, Baseline, Median / SHAQ Finger Ulcers, In Clinic Visit (Day 12), Mean / SHAQ Finger Ulcers, In Clinic Visit (Day 12), Median / SHAQ Standard disability index, Baseline, Mean / SHAQ Standard disability index, Baseline, Median / SHAQ Standard disability index, In Clinic Visit (Day 12), Mean / SHAQ Standard disability index, In Clinic Visit (Day 12), Median / SHAQ Visual Analog Scale-Breathing Problems, Baseline, Mean / SHAQ Visual Analog Scale-Breathing Problems, Baseline, Median / SHAQ Visual Analog Scale-Breathing Problems, In Clinic Visit (Day 12), Mean / SHAQ Visual Analog Scale-Breathing Problems, In Clinic Visit (Day 12), Median / SHAQ Visual Analog Scale-Intestinal Problems, Baseline, Mean / SHAQ Visual Analog Scale-Intestinal Problems, Baseline, Median / SHAQ Visual Analog Scale-Intestinal Problems, In Clinic Visit (Day 12), Mean / SHAQ Visual Analog Scale-Intestinal Problems, In Clinic Visit (Day 12), Median / SHAQ Visual Analog Scale-Pain, Baseline, Mean / SHAQ Visual Analog Scale-Pain, Baseline, Median / SHAQ Visual Analog Scale-Pain, In Clinic Visit (Day 12), Mean / SHAQ Visual Analog Scale-Pain, In Clinic Visit (Day 12), Median / SHAQ Visual Analog Scale-Raynaud's, Baseline, Mean / SHAQ Visual Analog Scale-Raynaud's, Baseline, Median / SHAQ Visual Analog Scale-Raynaud's, In Clinic Visit (Day 12), Mean / SHAQ Visual Analog Scale-Raynaud's, In Clinic Visit (Day 12), Median / SHAQ alternative disability index, Baseline, Mean / SHAQ alternative disability index, Baseline, Median / SHAQ alternative disability index, In Clinic Visit (Day 12), Mean / SHAQ alternative disability index, In Clinic Visit (Day 12), Median: Modified ITT
Summary of the method: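 Participants with SSc-RP completed the SHAQ at screening and each in-clinic visit. Standard and alternative disability indices (eight categories, 0–3; standard adjusts for aids/assistance) plus Raynaud's VAS on interference over the past 7 days. Reported as absolute change from baseline to end of each dosing period.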

[1] = Pooled Cilnidipine 10 mg and Cilnidipine 10 mg + Tadalafil 5 mg (N = 9)
[2] = Pooled Cilnidipine 10 mg and Cilnidipine 10 mg + Tadalafil 5 mg (N = 9), Subject 01-110 score excluded
[3] = Pooled Cilnidipine 20 mg and Cilnidipine 20 mg + Tadalafil 5 mg (N = 8)
[4] = Part A, dose Cilnidipine 10 mg, Tadalafil 5 mg, or 10 mg + 5 mg
[5] = Part A, dose Cilnidipine 20 mg, or 20 mg + Tadalafil 5 mg
[6] = PP Population, Part A, sensitivity analysis, Pooled Cilnidipine 10 mg and Cilnidipine 10 mg + Tadalafil 5 mg
[7] = PP Population, Part A, sensitivity analysis, Pooled Cilnidipine 20 mg and Cilnidipine 20 mg + Tadalafil 5 mg
[8] = PP Population, Part A, sensitivity analysis, cilnidipine 10 mg and/or tadalafil 5 mg as labelled

Structure (SMILES): COCCOC(=O)C1=C(C)NC(C)=C(C(=O)OC/C=C/c2ccccc2)C1c1cccc([N+](=O)[O-])c1 (centres unmarked) [Cilnidipine, cilnidipine]
- SHAQ Visual Analogue Scale - Overall Disease Severity, Median [1]: 1.900
- SHAQ Visual Analogue Scale - Pain, Mean [1]: 2.644
- SHAQ Visual Analogue Scale - Pain, Median [1]: 2.900
- SHAQ Visual Analogue Scale - Raynaud's, Mean [1]: 2.319
- SHAQ Visual Analogue Scale - Raynaud's, Median [1]: 2.600
- SHAQ Visual Analogue Scale - Breathing Problems, Mean [2]: 1.375
- SHAQ Visual Analogue Scale - Breathing Problems, Median [2]: 0.000
- SHAQ Visual Analogue Scale - Breathing Problems, Mean [3]: 1.400
- SHAQ Visual Analogue Scale - Breathing Problems, Median [3]: 0.450
- SHAQ Visual Analogue Scale - Finger Ulcers, Mean [3]: 1.171
- SHAQ Visual Analogue Scale - Finger Ulcers, Median [3]: 0.000
- SHAQ Visual Analogue Scale - Intestinal Problems, Mean [3]: 1.013
- SHAQ Visual Analogue Scale - Intestinal Problems, Median [3]: 0.100
- SHAQ Visual Analogue Scale - Overall Disease Severity, Mean [3]: 1.938
- SHAQ Visual Analogue Scale - Overall Disease Severity, Median [3]: 1.300
- SHAQ Visual Analogue Scale - Pain, Mean [3]: 2.288
- SHAQ Visual Analogue Scale - Pain, Median [3]: 2.100
- SHAQ Visual Analogue Scale - Raynaud's, Mean [3]: 1.688
- SHAQ Visual Analogue Scale - Raynaud's, Median [3]: 0.850
- SHAQ Visual Analogue Scale - Breathing Problems, Mean (Pooled Cilnidipine (N = 8)): 1.213
- SHAQ Visual Analogue Scale - Breathing Problems, Median (Pooled Cilnidipine (N = 8)): 0.200
- SHAQ Visual Analogue Scale - Finger Ulcers, Mean (Pooled Cilnidipine (N = 8)): 0.463
- SHAQ Visual Analogue Scale - Finger Ulcers, Median (Pooled Cilnidipine (N = 8)): 0.000
- SHAQ Visual Analogue Scale - Intestinal Problems, Mean (Pooled Cilnidipine (N = 8)): 0.975
- SHAQ Visual Analogue Scale - Intestinal Problems, Median (Pooled Cilnidipine (N = 8)): 0.300
- SHAQ Visual Analogue Scale - Overall Disease Severity, Mean (Pooled Cilnidipine (N = 8)): 1.475
- SHAQ Visual Analogue Scale - Overall Disease Severity, Median (Pooled Cilnidipine (N = 8)): 1.300
- SHAQ Visual Analogue Scale - Pain, Mean (Pooled Cilnidipine (N = 8)): 1.875
- SHAQ Visual Analogue Scale - Pain, Median (Pooled Cilnidipine (N = 8)): 1.550
- SHAQ Visual Analogue Scale - Raynaud's, Mean (Pooled Cilnidipine (N = 8)): 1.900
- SHAQ Visual Analogue Scale - Raynaud's, Median (Pooled Cilnidipine (N = 8)): 1.250
- SHAQ Finger Ulcers, Baseline, Mean [4]: 0.700
- SHAQ Finger Ulcers, Baseline, Median [4]: 0.500
- SHAQ Finger Ulcers, In Clinic Visit (Day 12), Mean [4]: 0.275
- SHAQ Finger Ulcers, In Clinic Visit (Day 12), Median [4]: 0.000
- SHAQ Standard disability index, Baseline, Mean [4]: 0.656
- SHAQ Standard disability index, Baseline, Median [4]: 0.563
- SHAQ Standard disability index, In Clinic Visit (Day 12), Mean [4]: 0.656
- SHAQ Standard disability index, In Clinic Visit (Day 12), Median [4]: 0.563
- SHAQ Visual Analog Scale-Breathing Problems, Baseline, Mean [4]: 1.875
- SHAQ Visual Analog Scale-Breathing Problems, Baseline, Median [4]: 0.000
- SHAQ Visual Analog Scale-Breathing Problems, In Clinic Visit (Day 12), Mean [4]: 1.575
- SHAQ Visual Analog Scale-Breathing Problems, In Clinic Visit (Day 12), Median [4]: 0.000
- SHAQ Visual Analog Scale-Intestinal Problems, Baseline, Mean [4]: 2.975
- SHAQ Visual Analog Scale-Intestinal Problems, Baseline, Median [4]: 2.550
- SHAQ Visual Analog Scale-Intestinal Problems, In Clinic Visit (Day 12), Mean [4]: 1.100
- SHAQ Visual Analog Scale-Intestinal Problems, In Clinic Visit (Day 12), Median [4]: 0.300
- SHAQ Visual Analog Scale-Pain, Baseline, Mean [4]: 1.975
- SHAQ Visual Analog Scale-Pain, Baseline, Median [4]: 2.150
- SHAQ Visual Analog Scale-Pain, In Clinic Visit (Day 12), Mean [4]: 1.875
- SHAQ Visual Analog Scale-Pain, In Clinic Visit (Day 12), Median [4]: 1.950
- SHAQ Visual Analog Scale-Raynaud's, Baseline, Mean [4]: 1.600
- SHAQ Visual Analog Scale-Raynaud's, Baseline, Median [4]: 1.000
- SHAQ Visual Analog Scale-Raynaud's, In Clinic Visit (Day 12), Mean [4]: 1.925
- SHAQ Visual Analog Scale-Raynaud's, In Clinic Visit (Day 12), Median [4]: 1.700
- SHAQ alternative disability index, Baseline, Mean [4]: 0.500
- SHAQ alternative disability index, Baseline, Median [4]: 0.438
- SHAQ alternative disability index, In Clinic Visit (Day 12), Mean [4]: 0.563
- SHAQ alternative disability index, In Clinic Visit (Day 12), Median [4]: 0.500
- SHAQ Finger Ulcers, Baseline, Mean [5]: 1.800
- SHAQ Finger Ulcers, Baseline, Median [5]: 0.300
- SHAQ Finger Ulcers, In Clinic Visit (Day 12), Mean [5]: 0.867
- SHAQ Finger Ulcers, In Clinic Visit (Day 12), Median [5]: 0.700
- SHAQ Standard disability index, Baseline, Mean [5]: 0.250
- SHAQ Standard disability index, Baseline, Median [5]: 0.375
- SHAQ Standard disability index, In Clinic Visit (Day 12), Mean [5]: 0.125
- SHAQ Standard disability index, In Clinic Visit (Day 12), Median [5]: 0.125
- SHAQ Visual Analog Scale-Breathing Problems, Baseline, Mean [5]: 1.133
- SHAQ Visual Analog Scale-Breathing Problems, Baseline, Median [5]: 1.200
- SHAQ Visual Analog Scale-Breathing Problems, In Clinic Visit (Day 12), Mean [5]: 0.300
- SHAQ Visual Analog Scale-Breathing Problems, In Clinic Visit (Day 12), Median [5]: 0.400
- SHAQ Visual Analog Scale-Intestinal Problems, Baseline, Mean [5]: 0.833
- SHAQ Visual Analog Scale-Intestinal Problems, Baseline, Median [5]: 1.000
- SHAQ Visual Analog Scale-Intestinal Problems, In Clinic Visit (Day 12), Mean [5]: 1.133
- SHAQ Visual Analog Scale-Intestinal Problems, In Clinic Visit (Day 12), Median [5]: 1.300
- SHAQ Visual Analog Scale-Pain, Baseline, Mean [5]: 2.167
- SHAQ Visual Analog Scale-Pain, Baseline, Median [5]: 1.500
- SHAQ Visual Analog Scale-Pain, In Clinic Visit (Day 12), Mean [5]: 1.067
- SHAQ Visual Analog Scale-Pain, In Clinic Visit (Day 12), Median [5]: 0.700
- SHAQ Visual Analog Scale-Raynaud's, Baseline, Mean [5]: 2.300
- SHAQ Visual Analog Scale-Raynaud's, Baseline, Median [5]: 2.500
- SHAQ Visual Analog Scale-Raynaud's, In Clinic Visit (Day 12), Mean [5]: 1.033
- SHAQ Visual Analog Scale-Raynaud's, In Clinic Visit (Day 12), Median [5]: 1.100
- SHAQ alternative disability index, Baseline, Mean [5]: 0.208
- SHAQ alternative disability index, Baseline, Median [5]: 0.250
- SHAQ alternative disability index, In Clinic Visit (Day 12), Mean [5]: 0.125
- SHAQ alternative disability index, In Clinic Visit (Day 12), Median [5]: 0.125
- SHAQ Alternative Disability Index: Baseline, Mean [6]: 0.458
- SHAQ Alternative Disability Index: Baseline, Median [6]: 0.250
- SHAQ Alternative Disability Index: Change from Baseline (Day 12), Mean [6]: 0.021
- SHAQ Alternative Disability Index: Change from Baseline (Day 12), Median [6]: 0.000
- SHAQ Alternative Disability Index: In-Clinic Visit (Day 12), Mean [6]: 0.479
- SHAQ Alternative Disability Index: In-Clinic Visit (Day 12), Median [6]: 0.250
- SHAQ Alternative Disability Index: Percent Change from Baseline (Day 12), Mean [6]: 28.11%
- SHAQ Alternative Disability Index: Percent Change from Baseline (Day 12), Median [6]: −10.00%
- SHAQ Alternative Disability Index: Baseline, Mean [7]: 0.453
- SHAQ Alternative Disability Index: Baseline, Median [7]: 0.250
- SHAQ Alternative Disability Index: Change from Baseline (Day 12), Mean [7]: −0.036
- SHAQ Alternative Disability Index: Change from Baseline (Day 12), Median [7]: −0.063
- SHAQ Alternative Disability Index: In-Clinic Visit (Day 12), Mean [7]: 0.417
- SHAQ Alternative Disability Index: In-Clinic Visit (Day 12), Median [7]: 0.250
- SHAQ Alternative Disability Index: Percent Change from Baseline (Day 12), Mean [7]: 13.40%
- SHAQ Alternative Disability Index: Percent Change from Baseline (Day 12), Median [7]: −18.13%
- SHAQ Visual Analogue Scale - Breathing Problems: Baseline, Mean [8]: 1.875
- SHAQ Visual Analogue Scale - Breathing Problems: Baseline, Median [8]: 0.000
- SHAQ Visual Analogue Scale - Breathing Problems: Change from Baseline (Day 12), Mean [8]: −0.300
- SHAQ Visual Analogue Scale - Breathing Problems: Change from Baseline (Day 12), Median [8]: 0.000
- SHAQ Visual Analogue Scale - Breathing Problems: In-Clinic Visit (Day 12), Mean [8]: 1.575
- SHAQ Visual Analogue Scale - Breathing Problems: In-Clinic Visit (Day 12), Median [8]: 0.000
- SHAQ Visual Analogue Scale - Breathing Problems: Percent Change from Baseline (Day 12), Mean [8]: −16.00%
- SHAQ Visual Analogue Scale - Breathing Problems: Percent Change from Baseline (Day 12), Median [8]: −16.00%
- SHAQ Visual Analogue Scale - Finger Ulcers: Baseline, Mean [8]: 0.700
- SHAQ Visual Analogue Scale - Finger Ulcers: Baseline, Median [8]: 0.500
- SHAQ Visual Analogue Scale - Finger Ulcers: Change from Baseline (Day 12), Mean [8]: −0.425
- SHAQ Visual Analogue Scale - Finger Ulcers: Change from Baseline (Day 12), Median [8]: −0.350
- SHAQ Visual Analogue Scale - Finger Ulcers: In-Clinic Visit (Day 12), Mean [8]: 0.275
- SHAQ Visual Analogue Scale - Finger Ulcers: In-Clinic Visit (Day 12), Median [8]: 0.000
- SHAQ Visual Analogue Scale - Finger Ulcers: Percent Change from Baseline (Day 12), Mean [8]: −69.44%
- SHAQ Visual Analogue Scale - Finger Ulcers: Percent Change from Baseline (Day 12), Median [8]: −69.44%
- SHAQ Visual Analogue Scale - Intestinal Problems: Baseline, Mean [8]: 2.975
- SHAQ Visual Analogue Scale - Intestinal Problems: Baseline, Median [8]: 2.550
- SHAQ Visual Analogue Scale - Intestinal Problems: Change from Baseline (Day 12), Mean [8]: −1.875

From patent US20240358693A1, “METHODS OF TREATING PAIN” (Aisa Pharma, Inc., priority 2023, published 2024)
